Laboratory results reported in US11485727B2, “N-methyl, n-(6-(methoxy)pyridazin-3-yl) amine derivatives as autotaxin (ATX) modulators” (Boehringer Ingelheim International GmbH, priority 2019, dated 2022).

Target: ATX in human whole blood (Homo sapiens (Human), UniProt Q13822)
Test: Assay B: Whole-Blood ATX Assay
Format: biochemical
Settings: not given

Row | SMILES | IC50
1 | CC(=O)N1CC2CCC(C1)N2c1ccc(CNc2ccc(OCc3ccc(C(F)(F)F)nc3)nn2)cc1 [Example 2.19] | 2 nM

Same assay, conditions: human whole-blood, 1 h at 37° C., formation of 18:2 LPA; read-out: Human whole blood LPA IC50

Row | SMILES | IC50
2 | CC(=O)N1CC2(C1)CN(c1ccc(CNc3ccc(OCc4ccc(C(F)(F)F)nc4)nn3)cc1)C2 [Example 1.1, 1-(6-(4-(((6-((6-(trifluoromethyl)pyridin-3-yl)methoxy)pyridazin-3-yl)amino)methyl)phenyl)-2,6-diazaspiro[3.3]heptan-2-yl)ethan-1-one] | 1.7 nM
3 | CC(=O)N1CC2(C1)CN(c1ccc(CNc3ccc(OCc4ccc(C(F)F)nc4)nn3)cc1)C2 [Example 1.2] | 1 nM
4 | CC(=O)N1CCN(c2ccc(CNc3ccc(OCc4ccc(C(F)F)nc4)nn3)cc2F)CC1 [Example 1.3] | 1.6 nM
5 | CC(=O)N1CCN(c2ccc(CNc3ccc(OCc4ccc(C(F)F)nc4)nn3)c(F)c2)CC1 [Example 1.4] | 2.8 nM
6 | CN1CC2(CC1=O)CN(c1ccc(CNc3ccc(OCc4ccc(C(F)F)nc4)nn3)cc1)C2 [Example 1.5] | 2 nM
7 | CC(=O)N1CCC2(CC1)CN(c1ccc(CNc3ccc(OCc4ccc(C(F)F)nc4)nn3)cc1)C2 [Example 1.6] | 8.7 nM
8 | CC(=O)N1CCN(c2ccc(CNc3ccc(OCc4ccc(C(F)F)nc4)nn3)cc2)CC1(C)C [Example 1.7] | 12.4 nM
9 | CC(=O)N1CCN(c2ccc(CNc3ccc(OCc4ccc(C(F)F)nc4)nn3)cc2)CC1 [Example 3, 1-[4-(4-{[(6-{[6-(Difluoromethyl)pyridin-3-yl]methoxy}pyridazin-3-yl)amino]methyl}-phenyl)piperazin-1-yl]ethan-1-one] | 1.9 nM
10 | CC(=O)N1CC[C@@H]2CN(c3ccc(CNc4ccc(OCc5ccc(C(F)(F)F)nc5)nn4)cc3)C[C@@H]2CC1 [Example 4] | 7.1 nM
11 | CC(=O)N1C[C@@H]2[C@H](C1)[C@H]1CN(c3ccc(CNc4ccc(OCc5ccc(C(F)(F)F)nc5)nn4)cc3)C[C@@H]21 [Example 5, 1-((3aR,3bS,6aR,6bS)-5-(4-(((6-((6-(trifluoromethyl)pyridin-3-yl)methoxy)pyridazin-3-yl)amino)methyl)phenyl)octahydrocyclobuta[1,2-c:3,4-c′]dipyrrol-2(1H)-yl)ethan-1-one] | 7.5 nM

Now from value to compound:

Row | IC50 | SMILES
12 | 4.7 nM | CC(=O)N(C)C1CCN(c2ccc(CNc3ccc(OCc4ccc(C(F)(F)F)nc4)nn3)cc2)CC1 [Example 2.1, N-methyl-N-[1-(4-{[(6-{[6-(trifluoromethyl)pyridin-3-yl]methoxy}pyridazin-3-yl)amino]methyl}phenyl)piperidin-4-yl]acetamide]
13 | 4.7 nM | CC(=O)N1CCN(c2ccc(CNc3ccc(OCc4ccc(C(F)(F)F)nc4)nn3)cc2)CC1 [Example 2.2]
14 | 4.4 nM | CC(=O)N1CCN(c2ccc(CNc3ccc(OCc4ccc(C(F)F)nc4)nn3)cn2)CC1 [Example 2.3]
15 | 6.8 nM | CC(=O)N1CCN(c2ccc(CNc3ccc(OCc4ccc(C(F)F)nc4)nn3)nc2)CC1 [Example 2.4]
16 | 4 nM | CC(=O)N1CCN(c2ccc(CNc3ccc(OCc4ccc(C(F)(F)F)nc4)nn3)cn2)CC1 [Example 2.5]
17 | 3.2 nM | CC(=O)N1CC2CC1CN2c1ccc(CNc2ccc(OCc3ccc(C(F)F)nc3)nn2)cc1 (stereo not drawn) [Example 2.6]
18 | 7 nM | CC(=O)N1CCN(c2ccc(CNc3ccc(OCc4ccc(C(F)F)nc4)nn3)c(C(F)(F)F)c2)CC1 [Example 2.7]
19 | 2.4 nM | FC(F)(F)c1ccc(COc2ccc(NCc3ccc(N4CCN(C5COC5)CC4)cc3)nn2)cn1 [Example 2.8]
20 | 4.1 nM | CC(=O)N1CC2(C1)CN(c1ccc(CNc3ccc(OCc4ccc(C(F)(F)F)nc4)nn3)cc1F)C2 [Example 2.9]
21 | 2.2 nM | FC(F)c1ccc(COc2ccc(NCc3ccc(N4CCN(C5COC5)CC4)cc3)nn2)cn1 [Example 2.10]
22 | 4 nM | CC(=O)N[C@H]1[C@@H]2CN(c3ccc(CNc4ccc(OCc5ccc(C(F)(F)F)nc5)nn4)cc3)C[C@@H]21 [Example 2.11]
23 | 4.3 nM | CC(=O)N1CCN(c2ccc(CNc3ccc(OCc4cnc(C(F)F)c(F)c4)nn3)cc2)CC1 [Example 2.12]
24 | 2.8 nM | CC(=O)N1C[C@@H]2CN(c3ccc(CNc4ccc(OCc5ccc(C(F)F)nc5)nn4)cc3)C[C@@H]2C1 [Example 2.14]
25 | 9.3 nM | CC(=O)N1CCN(c2ccc(CNc3ccc(OCc4ccc(C(F)(F)F)nc4)nn3)nc2)CC1 [Example 2.15]
26 | 5.1 nM | CC(=O)N1CCC2(CC1)CN(c1ccc(CNc3ccc(OCc4ccc(C(F)F)nc4)nn3)nc1)C2 [Example 2.16]
27 | 3.5 nM | CC(=O)N1CCC2(CC1)CN(c1ccc(CNc3ccc(OCc4ccc(C(F)(F)F)nc4)nn3)cn1)C2 [Example 2.17]
28 | 4.1 nM | CC(=O)N1CCC2(CC1)CN(c1ccc(CNc3ccc(OCc4ccc(C(F)F)nc4)nn3)cn1)C2 [Example 2.18]
29 | 3.7 nM | CC(=O)N1CC2CCC1CN2c1ccc(CNc2ccc(OCc3ccc(C(F)(F)F)nc3)nn2)cc1 (stereo not drawn) [Example 2.20]
30 | 1.4 nM | CC(=O)N1CC2(C1)CN(c1ccc(CNc3ccc(OCc4ccc(C(F)(F)F)nc4)nn3)c(F)c1)C2 [Example 2.21]
31 | 3.9 nM | CC(=O)N1CCC2(CC1)CN(c1ccc(CNc3ccc(OCc4ccc(C(F)(F)F)nc4)nn3)cc1)C2 [Example 2.22]
32 | 3.6 nM | CC(=O)N1CC2CC1CN2c1ccc(CNc2ccc(OCc3ccc(C(F)(F)F)nc3)nn2)cc1 (stereo not drawn) [Example 2.23]

System: LPA levels
Test: not given
Settings: as disclosed in C. Kuttruff, et al.; cited from earlier work

Row | SMILES | LPA levels in vivo
33 | O=C(NC[C@@H]1[C@H]2CN(C(=O)OCc3cc(C(F)(F)F)cc(C(F)(F)F)c3)C[C@@H]12)c1ccc2[nH]nnc2c1 | significantly reduces
